Article PMC6745845, “In Vitro and in Vivo antitumor activity and the mechanism of siphonodictyal B in human colon cancer cells” (Cancer Medicine, 2019)
Read-outs that look alike come from different tables or passages of the source.

Tests used:
[1] = test system: HCT 116 cells; experiment: Western blot analysis; format: cell-based, human
Protocol: HCT 116 cells were seeded in six‐well plates at 2 × 10^5 cells/well and incubated for 24 houra. […] Cells were harvested and lysed using RIPA buffer. The proteins were separated on an SDS‐PAGE and transferred to PVDF membranes. Then, the membranes were blocked for 1 hour and incubated with primary antibodies overnight at 4°C. The membranes were washed and incubated with secondary antibodies for 1 hour at room temperature. Next, the resultant bands were detected using an Odyssey Infrared Imaging system (LI‐COR, NB, USA). Antibodies against phospho‐RB (Ser780), AKT, phospho‐AKT ([…]), PARP, phospho‐p38 MAPK (Thr180/Tyr182), p38 MAPK, and Bim were purchased from Cell Signaling Technology (Danvers, MA, USA). Antibodies against β‐actin and α‐tubulin were purchased from Sigma‐Aldrich.

[2] = biological target: T1, CDK6/Cyclin D3 (Homo sapiens, UniProt Q00534); experiment: off-chip mobility shift assay, CDK6/Cyclin D3; format: biochemical
T1 construct: purchased Carna Biosciences
T1 sequence (Q00534 whole entry): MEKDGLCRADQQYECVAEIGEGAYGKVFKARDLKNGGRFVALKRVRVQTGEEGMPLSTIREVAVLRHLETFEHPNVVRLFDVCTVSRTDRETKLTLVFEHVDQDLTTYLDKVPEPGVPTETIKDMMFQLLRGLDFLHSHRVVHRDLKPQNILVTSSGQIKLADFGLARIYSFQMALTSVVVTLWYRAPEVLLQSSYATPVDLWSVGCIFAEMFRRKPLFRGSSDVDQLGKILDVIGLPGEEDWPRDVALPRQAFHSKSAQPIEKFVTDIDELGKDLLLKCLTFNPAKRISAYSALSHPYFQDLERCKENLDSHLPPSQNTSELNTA
T1 sequence (P30281 whole entry partner): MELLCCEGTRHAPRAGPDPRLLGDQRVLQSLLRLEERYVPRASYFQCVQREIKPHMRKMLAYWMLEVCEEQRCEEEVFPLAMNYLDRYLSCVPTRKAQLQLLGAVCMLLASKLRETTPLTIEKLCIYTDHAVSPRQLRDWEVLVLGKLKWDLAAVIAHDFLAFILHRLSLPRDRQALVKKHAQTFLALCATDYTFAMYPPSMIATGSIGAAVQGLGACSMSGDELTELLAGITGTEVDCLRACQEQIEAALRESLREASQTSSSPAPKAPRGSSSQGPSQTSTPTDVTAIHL
Protocol: (§1) Cellular kinase activities were evaluated using nonradioisotopic methods such as the off‐chip mobility shift assay or IMAP (Carna Biosciences, Kobe, Japan).11 A kinase inhibition profiling panel was produced on the basis of the kinase inhibition rates. In off‐chip mobility shift assay, compound solution was prepared in assay buffer (20 mmol/L HEPES, 0.01% Triton X‐100, 2 mmol/L DTT, pH 7.5) and incubated in a 384‐well plate at room temperature. The reaction was stopped by adding Termination Buffer (QuickScout Screening Assist MSA; Carna Biosciences, Kobe, Japan). The substrate peptide and the phosphorylated peptide in the reaction solution were separated and quantified by LabChip system (Perkin Elmer, MA, USA). In IMAP assay, compound solution was prepared in assay buffer (20 mmol/L HEPES, 0.01% Tween‐20, 2 mmol/L DTT, pH 7.4) and incubated in a 384‐well black plate at room temperature. IMAP binding reagent (IMAP Screening Express kit; Molecular Devices, CA, USA) was added and incubated for 30 minutes. The kinase reaction was evaluated at the fluorescence polarization.

[3] = biological target: T2, CDK4/Cyclin D3 (Homo sapiens, UniProt P11802); experiment: off-chip mobility shift assay, CDK4/Cyclin D3; format: biochemical
T2 construct: purchased Carna Biosciences
T2 sequence (P11802 whole entry): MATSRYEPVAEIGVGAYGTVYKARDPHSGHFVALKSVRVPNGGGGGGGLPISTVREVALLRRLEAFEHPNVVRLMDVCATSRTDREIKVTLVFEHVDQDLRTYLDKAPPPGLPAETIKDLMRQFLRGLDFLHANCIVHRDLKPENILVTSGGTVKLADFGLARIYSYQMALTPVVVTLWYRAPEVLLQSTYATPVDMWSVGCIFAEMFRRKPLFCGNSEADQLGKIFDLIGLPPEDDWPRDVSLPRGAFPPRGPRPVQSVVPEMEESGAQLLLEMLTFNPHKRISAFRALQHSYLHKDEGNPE
T2 sequence (P30281 whole entry partner): as the sequence (P30281 whole entry partner) above
Protocol: as §1

[4] = test system: PIK3CA/PIK3R1; conditions: cited from earlier work
[5] = biological target: T3, CDK7/Cyclin H/MAT1 (Homo sapiens, UniProt P50613); experiment: off-chip mobility shift assay, CDK7/Cyclin H/MAT1; format: biochemical
T3 construct: purchased Carna Biosciences
T3 sequence (P50613 whole entry): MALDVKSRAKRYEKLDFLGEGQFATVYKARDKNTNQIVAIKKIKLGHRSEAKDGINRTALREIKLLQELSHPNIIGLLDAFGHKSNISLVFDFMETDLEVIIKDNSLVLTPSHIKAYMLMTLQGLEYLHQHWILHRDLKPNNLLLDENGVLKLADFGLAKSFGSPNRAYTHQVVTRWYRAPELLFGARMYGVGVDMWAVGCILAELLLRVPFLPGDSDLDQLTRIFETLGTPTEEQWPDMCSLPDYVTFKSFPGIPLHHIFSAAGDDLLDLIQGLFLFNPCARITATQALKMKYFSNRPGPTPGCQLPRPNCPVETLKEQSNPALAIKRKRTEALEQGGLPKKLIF
T3 sequence (P51946 whole entry partner): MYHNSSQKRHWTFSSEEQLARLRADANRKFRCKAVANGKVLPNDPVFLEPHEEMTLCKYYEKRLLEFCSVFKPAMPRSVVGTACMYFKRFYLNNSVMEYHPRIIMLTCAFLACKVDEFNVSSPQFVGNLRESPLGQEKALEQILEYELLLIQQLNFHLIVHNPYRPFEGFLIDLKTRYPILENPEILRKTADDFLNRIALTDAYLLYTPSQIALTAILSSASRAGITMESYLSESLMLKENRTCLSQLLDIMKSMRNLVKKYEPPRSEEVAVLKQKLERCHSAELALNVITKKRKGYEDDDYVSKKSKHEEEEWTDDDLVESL
T3 sequence (P51948 whole entry partner): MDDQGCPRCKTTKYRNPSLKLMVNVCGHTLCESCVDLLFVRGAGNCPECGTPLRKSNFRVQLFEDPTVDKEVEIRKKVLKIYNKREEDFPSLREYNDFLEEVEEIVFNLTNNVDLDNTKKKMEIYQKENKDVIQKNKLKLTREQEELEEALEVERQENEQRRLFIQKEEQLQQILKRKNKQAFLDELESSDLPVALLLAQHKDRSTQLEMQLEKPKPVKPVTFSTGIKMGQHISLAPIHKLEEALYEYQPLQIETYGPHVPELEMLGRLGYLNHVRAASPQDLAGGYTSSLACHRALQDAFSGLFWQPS
Protocol: as §1

[6] = biological target: T4, PIM2 (Homo sapiens, UniProt Q9P1W9); experiment: off-chip mobility shift assay, PIM2; format: biochemical
T4 construct: purchased Carna Biosciences
T4 sequence (Q9P1W9 whole entry): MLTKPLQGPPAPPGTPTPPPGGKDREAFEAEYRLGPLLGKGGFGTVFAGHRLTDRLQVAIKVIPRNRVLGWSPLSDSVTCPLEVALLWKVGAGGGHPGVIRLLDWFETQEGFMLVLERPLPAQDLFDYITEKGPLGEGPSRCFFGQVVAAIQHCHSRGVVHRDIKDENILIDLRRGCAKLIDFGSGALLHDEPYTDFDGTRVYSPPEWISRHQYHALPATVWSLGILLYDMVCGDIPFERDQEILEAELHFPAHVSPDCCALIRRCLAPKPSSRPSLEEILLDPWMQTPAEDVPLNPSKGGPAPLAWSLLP
Protocol: as §1

[7] = test system: 313 protein kinases; experiment: kinase panel assay (off-chip mobility shift or IMAP); format: biochemical; conditions: 313 kinases; 10 μmol/L printed for siphonodictyal B
Protocol: as §1

[8] = test system: phospho-p38; experiment: immunohistochemistry of xenograft tumor tissue; format: in vivo, Balb/c nude mice; conditions: 20 mg/kg intraperitoneally every 3 days, after all treatments
Protocol: (§2) All animal experiments were performed according to the Regulations for Animal Experiments and Related Activities at Tohoku University. Six‐week‐old female Balb/c nude mice were purchased from Charles River Laboratories (Wilmington, MA, USA). HCT 116 cells (5 × 10^6) were implanted subcutaneously into the right flanks of nude mice. After tumor formation was confirmed, mice were assigned to treatment with 20 mg/kg siphonodictyal B or vehicle (four mice per group) administered intraperitoneally every 3 days. Siphonodictyal B was dissolved in saline with 2.5% CremophorEL® and 2.5% ethanol. Tumor volumes were calculated on the basis of tumor mass using the formula length × width × width/2 (mm^3). The body weights of mice were also measured every 3 days.
Tumor tissues were collected from mice, fixed in 10% formalin, and embedded in paraffin. Tumor sections on slides were dewaxed, rehydrated, and incubated with a specific antibody against phospho‐p38.

[9] = test system: HCT 116 xenograft; experiment: xenograft mouse model, tumor growth; format: in vivo, Balb/c nude mice; conditions: 20 mg/kg intraperitoneally every 3 days
Protocol: as §2

[10] = test system: HCT 116 cells; experiment: cell proliferation assay (Cell Counting Kit-8), HCT 116
Protocol: Cells were seeded in 96‐well plates at 4000 cells/well and incubated for 24 hours, then treated with each concentration of siphonodictyal B. In experiments with SB203580 or NAC, cells were further preincubated for 24 or 1 hour before application of siphonodictyal B, respectively. Cells were incubated with Cell Counting Kit‐8 (Dojindo Molecular Technologies, Kumamoto, Japan) for 1.5 hours. Then, the absorbance of each well was measured using SpectraMaxM2e (Molecular Devices, CA, USA). The ratios of surviving cells to control cells treated with 0.1% DMSO were calculated.

[11] = test system: HCT 116 cells; experiment: ROS detection by DCFDA staining; format: cell-based, human; conditions: 2 h
Protocol: HCT 116 cells were treated with each drug for 2 hours and stained using a DCFDA/H2DCFDA—Cellular Reactive Oxygen Species Detection Assay Kit (Abcam). The measurement was performed using FC‐500.

[12] = read-out: PI3K (p110α/p85α) inhibitory activity IC50
[13] = ref Kikuchi T et al. 2016;2016(34):5659-66, read-out: IC50 PIK3CA/PIK3R1

## CS(=O)(=O)N1CCN(Cc2cc3nc(-c4cccc5[nH]ncc45)nc(N4CCOCC4)c3s2)CC1 [GDC0941, reference compound]
[1]; 2 μmol/L GDC0941, 48 h
  AKT phosphorylation: inhibited

## CC1CCC2C(C)(C)CCCC2(C)c2c1oc1c(C=O)c(O)c(O)cc21 (stereo not shown) [Liphagal]
[2]
  IC50: 6.78 µM
[3]
  IC50: 19.9 µM
[4]; [12]
  IC50: 4.1 µM
[4]; [13]
  IC50: 4.12 µM
[5]
  IC50: 1.27 µM
[6]
  IC50: 5.31 µM
[7]
  inhibition of CDK4, CDK6, CDK7 and PIM-2 in kinase panel: strongly inhibited

## CC1CC[C@H]2C(C)(C)CCC[C@]2(C)C1=Cc1cc(O)c(O)c(C=O)c1O (stereo partly shown) [Siphonodictyal B]
[8]
  phosphorylated p38 staining in tumor tissue vs control group: strongly stained
[1]; 1.0 μmol/L, 48 h
  PARP cleavage: induced
  p38 phosphorylation: clearly induced
[1]; 0.1, 0.5 or 1 μmol/L, 48 h
  AKT phosphorylation at Ser473: did not inhibit
  RB phosphorylation at Ser780: did not inhibit
[1]; 0.5 or 1.0 μmol/L, 48 h
  levels of Bim: increased
[1]; with NAC, 24 h
  phosphorylated p38 on addition of NAC: reduced
[1]; with SB203580, 48 h
  p38 phosphorylation on addition of SB203580: reduced
[2]
  IC50: 69.1 µM
[9]
  tumor volume vs control group: significantly smaller
  tumor weight vs control group: significantly smaller
[3]
  IC50: 32.9 µM
[10]; HCT 116, 0.01-10 μmol/L, 24 h
  cytotoxic effect (ratio of surviving cells): more potent cytotoxic effects than liphagal
[10]; HCT 116, with NAC, 24 h
  cytotoxic effect on addition of NAC: almost completely rescued
[10]; HCT 116, with SB203580, 48 h
  cytotoxic effect on addition of SB203580: partially canceled
[4]; [12]
  IC50: 2.6 µM
[4]; [13]
  IC50: 2.62 µM
[5]
  IC50: 13.7 µM
[6]
  IC50: 6.99 µM
[7]
  inhibition of CDK4, CDK6, CDK7 and PIM-2 in kinase panel: strongly inhibited
[11]
  ROS levels vs DMSO: higher
[11]; with NAC
  increased ROS production on addition of NAC: completely canceled

## CC(=O)c1c(C)c2cnc(Nc3ccc(N4CCNCC4)cn3)nc2n(C2CCCC2)c1=O [palbociclib, Palbociclib, reference compound]
[1]; 10 μmol/L palbociclib, 48 h
  RB phosphorylation: inhibited
